Results from patent US20090312336A1, “DIHYDROPTERIDINE COMPOUNDS AS ANTI PROLIFERATIVE AGENTS” (ASTRAZENECA AB, priority 2006, published 2009).
Like-named read-outs stand apart in the source and are kept apart here.

How the values were obtained:
recombinant Plk1 = biological target: T1, recombinant Plk1 (Homo sapiens, UniProt P53350); experiment: In vitro Plk1 enzyme assay (SPA); assay type: biochemical
T1 construct: The full-length Plk1 protein is expressed in insect cells as an N-terminal 6His tag fusion; 6His (N); made in house; host or cells: insect cells (Plk1); E. coli (GST-Cdc25C substrate)
T1 sequence (P53350 whole entry, the tested form may be a part): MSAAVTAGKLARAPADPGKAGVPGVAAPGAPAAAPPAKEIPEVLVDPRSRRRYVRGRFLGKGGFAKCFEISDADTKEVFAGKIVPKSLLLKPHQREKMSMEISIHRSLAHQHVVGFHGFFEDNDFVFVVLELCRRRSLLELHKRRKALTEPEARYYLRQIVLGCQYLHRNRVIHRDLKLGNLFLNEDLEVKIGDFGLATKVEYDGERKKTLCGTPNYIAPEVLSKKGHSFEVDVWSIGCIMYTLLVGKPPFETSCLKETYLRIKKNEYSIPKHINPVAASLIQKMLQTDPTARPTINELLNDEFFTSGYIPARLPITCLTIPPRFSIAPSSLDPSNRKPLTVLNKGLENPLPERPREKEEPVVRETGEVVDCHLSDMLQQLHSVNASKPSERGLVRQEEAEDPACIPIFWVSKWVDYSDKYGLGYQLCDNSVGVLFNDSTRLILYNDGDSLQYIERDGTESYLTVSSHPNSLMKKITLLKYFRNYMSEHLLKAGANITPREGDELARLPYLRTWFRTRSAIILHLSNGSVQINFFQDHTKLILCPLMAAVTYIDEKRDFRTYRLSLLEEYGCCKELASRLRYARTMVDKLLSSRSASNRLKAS
Source text: The assay uses Scintillation Proximity Assay (SPA) technology (Antonsson et al., Analytical Biochemistry, 1999, 267: 294-299) to determine the ability of test compounds to inhibit phosphorylation by recombinant Plk1. The full-length Plk1 protein is expressed in insect cells as an N-terminal 6His tag fusion and purified by standard Nickel chelate purification techniques using the His tag.
The amino terminal fragment of Cdc25C (encoding residues 1-165) is expressed in E. coli as a GST fusion and purified using the GST tag by standard purification techniques.
Test compounds were prepared as 10 mM stock solutions in dimethyl sulphoxide (DMSO) and diluted into water as required to give a range of final assay concentrations. Aliquots (5 μl) of each compound dilution were dispensed into a well of a 384-well flat bottom white polystyrene plate (Matrix, Catalogue No. 4316). A 35 μl mixture of recombinant purified Plk1 enzyme (12 ng/well), purified GST-Cdc25C (150 ng/well), adenosine triphosphate (ATP; 64 nM), ^33P-labelled adenosine triphosphate (^33P-ATP; 60 nCi/well) in a buffer solution [comprising 50 mM HEPES pH7.5 buffer, 10 mM manganese chloride (MnCl2), 1 mM dithiothreitol (DTT), 1 mg/ml bovine serum albumin (BSA), 100 μM sodium vanadate (Na3VO4), 100 μM sodium fluoride (NaF) and 10 mM sodium glycerophosphate] was added and the reactions incubated at ambient temperature for 90 minutes.
Reactions were stopped by addition of EDTA (110 mM) and the Cdc25C substrate captured via its GST tag to anti-GST antibody (Molecular Probes, Cat No A-5800) coated Protein A PVT SPA beads (Amersham Biosciences, Catalogue No. RPQ0019; 250 μg/well) in 50 mM HEPES pH7.5 buffer containing 0.05% (w/v) sodium azide and incubated for up to 2 hours, followed by the addition of 20 μl of 4M caesium chloride (final assay concentration of 1M). Plates were then left in the dark overnight before counting on a Packard TopCount NXT.
Radiolabelled phosphorylated substrate is formed in situ as a result of Plk1 mediated phosphorylation. The SPA beads contain a scintillant that can be stimulated to emit light. This stimulation only occurs when a radiolabelled phosphorylated substrate is bound to the surface of the coated SPA bead causing the emission of blue light that can be measured on a scintillation counter. Accordingly, the extent of Plk1 mediated Cdc25C phosphorylation was assessed. The raw assay data were then analysed by non-linear regression analysis and Plk1 enzyme inhibition for a given test compound is expressed as an IC50 value.

[1] = tested on: human colon tumour cell line HT29; experiment: Cellular assay: phosphohistone H3 mitotic marker in HT29 cells; assay type: cell-based; conditions: HT-29, 24 h, phosphohistone H3 staining
Protocol: Chromosome condensation in mitosis is accompanied by phosphorylation of histone H3 on serine 10. Dephosphorylation begins in anaphase and ends at early telophase, thus histone H3 serine 10 phosphorylation acts as an excellent mitotic marker and is used to determine the ability of compounds of the present invention to block cells in mitosis.
Cells of the human colon tumour cell line HT29 were seeded into 96 well black plates (Costar, Catalogue No 3904) in phenol red free Dulbecco's Modified Eagles Medium (DMEM) supplemented with 10% (v/v) FCS and 1% (v/v) L-Glutamine and incubated overnight at 37° C. […] Cells were again washed with PBS and incubated with 50 μl secondary antibody (1:1000 Alexa Fluor 488 goat anti-rabbit (Molecular Probes Cat No A-11008) and Hoechst (1:10000) diluted in PBS 0.05% (v/v) Tween 20 and left for 1 hour at room temperature in the dark. Cells were washed with PBS then covered with fresh PBS and stored at 4° C. until analysis. Images are acquired and analysed in an automated manner using the Cellomics ArrayScan II or VTi. In this assay both hoechst and phosphohistone H3 staining are measured. Hoechst staining generates a valid cell count while phosphohistone H3 staining determines the number of mitotic cells. […] The raw assay data were analysed by non-linear regression analysis and used to determine an IC50 value for each compound.

[2] = Plk1 enzyme, class symbols for IC50, read-out: Kinase Inhibition

SMILES | IC50 (recombinant Plk1; [2]) [µM] | IC50 (recombinant Plk1; Plk1 enzyme assay, read-out: IC50 value in the enzyme assay) [µM] | IC50 [1] [µM]
CC[C@@H]1CN(C)c2cnc(Nc3ccc(CNC4CCN(C)CC4)c(F)c3)nc2N1C1CCCC1 [Example 4, (7R)-8-Cyclopentyl-7-ethyl-N-[3-fluoro-4-[[(1-methyl-4-piperidyl)amino]methyl]phenyl]-5-methyl-6,7-dihydropteridin-2-amine] | 3 to 6 | – | –
CCOc1cc(C(=O)NC2CCN(C)CC2)ccc1Nc1ncc2c(n1)N(C1CCCC1)[C@H](CC)CN2C [Example 8, 4-[[(7R)-8-Cyclopentyl-7-ethyl-5-methyl-6,7-dihydropteridin-2-yl]amino]-3-ethoxy-N-(1-methyl-4-piperidyl)benzamide] | < 3 | – | –
CC[C@@H]1CN(C)c2cnc(Nc3ccc(CNCC(C)(C)CN(C)C)cc3OC)nc2N1C1CCCC1 [Example 3, N-[[4-[[(7R)-8-Cyclopentyl-7-ethyl-5-methyl-6,7-dihydropteridin-2-yl]amino]-3-methoxy-phenyl]methyl]-N′,N′,2,2-tetramethyl-propane-1,3-diamine] | 6 to 15 | – | –
CC[C@@H]1CN(CC)c2cnc(Nc3ccc(C(=O)NC4CCN(C)CC4)cc3OC)nc2N1C1CCCC1 [Example 5, 4-[[(7R)-8-Cyclopentyl-5,7-diethyl-6,7-dihydropteridin-2-yl]amino]-3-methoxy-N-(1-methyl-4-piperidyl)benzamide] | < 3 | – | –
CC[C@@H]1CN(C)c2cnc(Nc3ccc(C(=O)NCC(C)(C)CN(C)C)cc3OC)nc2N1C1CCCC1 [Example 2, 4-[[(7R)-8-Cyclopentyl-7-ethyl-5-methyl-6,7-dihydropteridin-2-yl]amino]-N-(3-dimethylamino-2,2-dimethyl-propyl)-3-methoxy-benzamide] | < 3 | – | –

The remaining lines, values ahead:

IC50 (recombinant Plk1; [2]) [µM] | IC50 (recombinant Plk1; Plk1 enzyme assay, read-out: IC50 value in the enzyme assay) [µM] | IC50 [1] [µM] | SMILES
< 3 | – | – | CC[C@@H]1CN(C)c2cnc(Nc3ccc(C(=O)NC4CCN(C)CC4)cc3OC)nc2N1C1CCCC1 [Example 1, 4-[[(7R)-8-Cyclopentyl-7-ethyl-5-methyl-6,7-dihydropteridin-2-yl]amino]-3-methoxy-N-(1-methyl-4-piperidyl)benzamide]
< 3 | – | – | CCC[C@@H]1CN(C)c2cnc(Nc3ccc(C(=O)NC4CCN(C)CC4)cc3OC)nc2N1C1CCCC1 [Example 7, 4-{[(7R)-8-Cyclopentyl-5-methyl-7-propyl-5,6,7,8-tetrahydropteridin-2-yl]amino}-3-methoxy-N-(1-methylpiperidin-4-yl)benzamide]
< 3 | 0.699 | 0.256 | COc1cc(C(=O)NC2CCN(C)CC2)ccc1Nc1ncc2c(n1)N(C1CCCC1)[C@H](C1CC1)CN2C [Example 6, 4-{[(7R)-8-Cyclopentyl-7-cyclopropyl-5-methyl-5,6,7,8-tetrahydropteridin-2-yl]amino}-3-methoxy-N-(1-methylpiperidin-4-yl)benzamide]
